US20180256538A1, “METHOD FOR IMPROVING MITOPHAGY IN SUBJECTS” (Amazentis SA, priority 2017, published 2018)
Entries after “also recorded” stand apart in the source; their conditions may differ.

Columns and labels:
clinical [1] = conditions: human, in vivo, po; for AUC(0-t) / Cmax: both sexes
Method: Part A: The study was a double-blind, randomized, single ascending doses, study in 24 healthy elderly male and female volunteers. Each subject was randomized for two subsequent doses in three cohorts.
Part A: Single oral dose administration on D1 of each period according to the randomisation. The administration took place around 8:00 am with around 200 mL tap water, in sitting position, and under fasting conditions.
After single dosing: Cmax, tmax, AUC0-t, AUC0-∞, t1/2
(§1) Blood sampling was performed for urolithin A concentration measurements at the exact timepoints with an authorised time window described in the table below:
(§2) At each time point indicated in the table, a 6 mL blood sample was drawn into K2-EDTA coated tube. The blood samples were gently inverted a few times for complete mixing with the anticoagulant. The exact time of sample collection was recorded on the eCRF. Within 30 minutes following blood collection, each blood sample was centrifuged at 1500 g for 10 minutes at 4° C.
(§3) From the plasma concentration-time data, the following pharmacokinetic parameters were determined, as data permit using non-compartmental methods: maximum observed plasma concentration (Cmax), time at which maximum observed plasma concentration (tmax), area under the plasma concentration-time curve AUC(0-24 h) and AUC(0-∞), and apparent terminal phase half-life (t1/2).
FIG. 1 summarises certain plasma pharmacokinetic parameters of urolithin A following single dose oral administration at 250 mg, 500 mg, and 2000 mg urolithin A dosages.

[2] = system: mitochondrial gene sets in vastus lateralis muscle; assay: Microarray / Gene Set Enrichment Analysis of gene expression in skeletal muscle biopsies after 28 days dosing; assay type: in vivo, human; conditions: 500 mg/day for 28 days vs placebo group
Method: Muscle biopsies were collected before the meal from the vastus lateralis muscle of the right leg in order to perform ex vivo measurements.
Muscle biopsies were collected on Day −1 and Day 28 at pre-dose under fasted state using the Bergstrom biopsy needle technique. The minimal amount of each muscle tissue sample was approximately […]. One third of the tissue was used for gene expression (≈50 mg), and was further divided into two equal portions: one portion for RNA analysis (≈25 mg) and one portion for DNA analysis (≈25 mg), both in a Safe-lock Tubes 2.0 ml, Eppendorf (part no. 0030.120.094). Muscle tissue was snap frozen using liquid nitrogen immediately after collection and further, long term storage will be in a −80° C. freezer. The mRNA was analysed by qPCR. Quantification of mtDNA over nuclear DNA provided another measure of mitochondrial abundance. The shipment was done in dry ice by specialized carrier. Temperatures were monitored using data logger during all transport.
Gene expression on available remaining muscle tissues samples was performed by microarrays.
Microarray analysis was carried out on skeletal muscle biopsies of human subjects administered urolithin A or placebo daily for 28 days. Approximately 30,000 gene transcripts were quantified by microarray in muscle biopsies and compared (day 28 vs. day −1). Gene Set Enrichment Analysis was conducted on 6166 gene sets. […]

clinical [3] = conditions: human, in vivo, po
Method: Part B: The study was a double-blinded, randomized, multiple ascending dose study in 36 healthy elderly male and female volunteers. Each subject was randomised to receive study product or placebo for 28 days.
Part B: Repeated oral dose administration from day 1 to day 28 according to the randomization. The administration took place around 8:00 am with around 200 mL tap water, in a sitting position, and under fasting conditions.
After multiple dosing: Cmax, tmax, AUC0-24 h, t1/2 From the plasma concentration-time data, the following pharmacokinetic parameters will be determined, as data permit using non-compartmental methods: maximum observed plasma concentration (Cmax(ng/mL), time at which maximum observed plasma concentration (tmax) (h), area under the plasma concentration-time curve AUC(0-24 h) (ng/mL*h) and AUC0-∞) (ng/mL*h), and apparent terminal phase half-life (t1/2) (h).
as §1, §2, §3

[4] = system: myostatin/follistatin ratio; assay: ELISA of plasma muscle function markers, day 28 vs day -1; assay type: in vivo, human; conditions: 500 mg/day for 28 days, day 28 vs day -1, compared with placebo
Method: Blood handling procedures: at each time point indicated in the table, a 6 mL blood sample was drawn into K2-EDTA coated tube. The blood samples were gently inverted a few times for complete mixing with the anticoagulant. The exact time of sample collection was recorded on the eCRF. Within 30 minutes following blood collection, each blood sample was centrifuged at 1500 g for 10 minutes at 4° C. 30 minutes after the centrifugation, the top layer of human plasma was transferred into 2 pre-labelled polypropylene tubes, containing approximately 1500 μL of plasma. Blood cells were not transferred. All sample tubes were clearly and appropriately labelled. Tubes were capped immediately from each time point and the plasma was be frozen in an upright position at approximately −80° C. for storage. Measurement of markers of muscle function: Markers of muscle function, including myostatin and follistatin, were measured using an ELISA based method. Every sample was analysed in technical duplicates together with a standard curve made with each isolated analyte. The amount of each marker was expressed as an absolute concentration in plasma (pg to μg/ml of plasma, depending on the analyte). Analysis of the levels of muscle biomarkers myostatin and follistatin, which are found in plasma of human subjects, was carried out using ELISA.

[5] = system: plasma acylcarnitines and other metabolites; assay: Plasma metabolomics (LC/MS/MS), day 28 vs day -1; assay type: in vivo, human; conditions: 500 mg/day for 28 days
Method: Blood handling procedures: at each time point indicated in the table, a 6 mL blood sample was drawn into K2-EDTA coated tube. The blood samples were gently inverted a few times for complete mixing with the anticoagulant. The exact time of sample collection was recorded on the eCRF. Within 30 minutes following blood collection, each blood sample was centrifuged at 1500 g for 10 minutes at 4° C. 30 minutes after the centrifugation, the top layer of human plasma was transferred into 2 pre-labelled polypropylene tubes, containing approximately 1500 μL of plasma. Blood cells were not transferred. All sample tubes were clearly and appropriately labelled. Tubes were capped immediately from each time point and the plasma was be frozen in an upright position at approximately −80° C. for storage. Measurement of metabolites: Samples were extracted and split into equal parts for analysis on the LC/MS/MS and Polar LC platforms. Proprietary software was used to match ions to an in-house library of standards for metabolite identification and for metabolite quantitation by peak area integration. A total of 781 metabolites were quantified. Metabolomics is the study of known measurable metabolites in a sample. […] The technique made use of HPLC-MS-MS analysis of plasma samples of subjects administered either placebo or urolithin A to characterise metabolites. 781 plasma metabolites which cover all of the biochemical processes of the body were investigated. […] The grey line in FIG. 8 corresponds to a fold change of 1, i.e. absence of effect. *P<0.05 correspond to a significant effect from D-1 (pre-dose) to D28, calculated after a repeated measures ANOVA. N=9 per group. Values represent the arithmetic mean of the fold changes.

[6] = Steady state plasma levels of total Urolithin A (parent + glucuronide and sulfate) over 28 days of dosing; assay type: in vivo, human; conditions: 500 mg/day oral for 28 days, total Urolithin A in plasma
Method: A double-blind, randomized, placebo controlled clinical trial was conducted in healthy elderly to establish the steady state levels of Urolithin A in plasma. Elderly subjects (61-82 years) (n=9), participated in each group of dosing. The subjects met all the inclusion and exclusion criteria of the study and signed informed consent. The subjects were overnight fasted and the plasma was collected in the morning before breakfast to assess steady state levels. Subjects were given a dose of Urolithin or placebo each morning for the 28 day trial, The urolithin A was given as softgel capsules containing 250 mg of Urolithin A in each capsule. Plasma samples were collected for assessment of Urolithin A steady state concentrations in the 4-week Urolithin A study at the following time points (Day 0, Day 7, Day 14, Day 28, Day 29, Day 31, and Day 32) were measured On day 28 the subjects were admitted to a Phase I clinical trial unit and the kinetics of Urolithin A absorption, and elimination following multiple 4-week dosing were followed until 96 hours following the last dosing on Day 28. Plasma was collected at the following time-points post last dosing with Urolithin A on Day 28: pre-dose, 1 hr, 2 hr, 4 hr, 6 hr, 8 hr, 12 hr, 24 hr, 72 hr and 96 hr. […] The exact time of sample collection was recorded on the eCRF (electronic case report from). […]

## O=c1oc2cc(O)ccc2c2ccc(O)cc12 [Urolithin A]
Clinical [1]; 500 mg
  AUC(0-t): 13.3 ng·h/mL
  Cmax: 1.24 ng/mL
Clinical [1]; 2000 mg
  AUC(0-t): 12.4 ng·h/mL
  Cmax: 1.04 ng/mL
Clinical [1]
  dose-normalised plasma Cmax and AUC0-36 h (plasma levels per mg dosed): higher plasma levels of urolithin A were observed per mg dosed
[2]
  enrichment in GO_MITOCHONDRION genes expression: significant
Clinical [3]; both sexes, 500 mg
  AUC: 10.7 ng·h/mL
  Cmax: 1.25 ng/mL
Clinical [3]
  pharmacokinetic profile over the 28 day period (plasma concentrations 24 h after previous dose, days 7, 14, 28, 29): stable
[4]
  change in plasma myostatin/follistatin ratio: significantly lower; also recorded: significant decrease
[5]
  plasma carnitine levels: did not change
[5]; day -1 to day 28, N=9
  change in plasma acylcarnitines, short chain up to long chain (fold change): overall decrease; also recorded: significant impact
  change in plasma pyruvate, lactate, acetoacetate, 3-hydroxyoctanoate and glucose (fold change): no significant change
[6]
  steady state levels after end of the 4-week administration (Day 31 and Day 32): gradually declined
